Source: patent US7429659B2, “Furan compounds as histamine H3 modulators” (Janssen Pharmaceutica N.V., priority 2004, dated 2008)
Where a name gives a salt, the structure may show the parent alone.

Molecular target: T1, human histamine H3 receptor (Homo sapiens, UniProt Q9Y5N1)
T1 construct: One μg supercoiled H3 receptor cDNA was added to the cells; expressed in transfected cells; membranes prepared from cell pellets
Test: [3H]-N-Methylhistamine binding to membranes of histamine H3 receptor-expressing SK-N-MC cells
Conditions: 0.8 nM [3H]-N-methylhistamine, 60 min at 25° C., SK-N-MC cell membranes; Ki=(IC50)/(1+([L]/(KD))
Protocol: Cells were grown to about 70% to 80% confluence and removed from the plate with trypsin and pelleted in a clinical centrifuge. […] One μg supercoiled H3 receptor cDNA was added to the cells and mixed gently. […] Colonies that survived selection were grown and tested. SK-N-MC cells were used because they give efficient coupling for inhibition of adenylate cyclase. The clones that gave the most robust inhibition of adenylate cyclase in response to histamine were used for further study.
Supernatants from an 800 g spin were collected and were recentrifuged at 30,000 g for 30 min. Pellets were re-homogenized in 50 mM Tris/5 mM EDTA (pH 7.4). Membranes were incubated with 0.8 nM [^3H]-N-methylhistamine plus/minus test compounds for 60 min at 25° C. and were harvested by rapid filtration over GF/C glass fiber filters (pretreated with 0.3% polyethylenimine) followed by four washes with buffer. Filters were added to 5 mL of scintillation cocktail, and the signal was then counted on a liquid scintillation counter.

T1 sequence (Q9Y5N1 whole entry): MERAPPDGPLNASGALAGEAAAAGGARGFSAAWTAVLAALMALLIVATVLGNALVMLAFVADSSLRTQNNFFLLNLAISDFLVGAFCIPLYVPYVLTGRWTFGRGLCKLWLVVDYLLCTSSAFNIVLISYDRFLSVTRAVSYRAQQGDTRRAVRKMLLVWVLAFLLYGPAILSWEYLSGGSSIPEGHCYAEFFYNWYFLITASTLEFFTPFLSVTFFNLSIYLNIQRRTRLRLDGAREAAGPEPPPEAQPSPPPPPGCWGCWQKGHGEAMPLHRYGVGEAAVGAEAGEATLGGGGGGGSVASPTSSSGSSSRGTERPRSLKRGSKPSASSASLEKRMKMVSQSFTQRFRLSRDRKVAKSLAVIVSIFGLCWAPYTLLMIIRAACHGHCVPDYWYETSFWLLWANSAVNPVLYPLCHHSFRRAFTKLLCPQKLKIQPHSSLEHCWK

CC(C)N1CCN(C(=O)c2ccc(CN3CCC(F)CC3)o2)CC1 [Example 19, [5-(4-Fluoro-piperidin-1-ylmethyl)-furan-2-yl]-(4-isopropyl-piperazin-1-yl)-methanone, fumarate salt]
Ki: 64 nM
